According to the NIST ThermoML archive (doi:10.1016/j.jct.2017.11.017):
± gives the expanded uncertainty stated by the source.

Assay: activity coefficient (dimensionless); of the first substance listed, at infinite dilution; xn = mol fraction of the nth substance listed
Details: 101.33 kPa, Liquid, Chromatography, x1 = 0

Structure (SMILES): CCCCCCC [heptane] + C[n+]1ccn(CCCO)c1.N#CN=C=[N-]
- activity coefficient (298.15 K): 562 ± 39
- activity coefficient (308.15 K): 504 ± 35
- activity coefficient (318.15 K): 447 ± 31
- activity coefficient (328.15 K): 402 ± 28
- activity coefficient (338.15 K): 366 ± 25
- activity coefficient (348.15 K): 334 ± 23
- activity coefficient (358.15 K): 306 ± 21

Structure (SMILES): CC#N [acetonitrile] + C[n+]1ccn(CCCO)c1.N#CN=C=[N-]
- activity coefficient (318.15 K): 1.19 ± 0.08
- activity coefficient (328.15 K): 1.23 ± 0.08
- activity coefficient (338.15 K): 1.29 ± 0.08
- activity coefficient (348.15 K): 1.33 ± 0.09
- activity coefficient (358.15 K): 1.37 ± 0.09
- activity coefficient (368.15 K): 1.41 ± 0.09

Structure (SMILES): C1COCCO1 [1,4-dioxane] + C[n+]1ccn(CCCO)c1.N#CN=C=[N-]
- activity coefficient (318.15 K): 1.73 ± 0.12
- activity coefficient (328.15 K): 1.85 ± 0.12
- activity coefficient (338.15 K): 1.98 ± 0.13
- activity coefficient (348.15 K): 2.09 ± 0.14
- activity coefficient (358.15 K): 2.23 ± 0.15
- activity coefficient (368.15 K): 2.34 ± 0.16

Structure (SMILES): C#CCCCC [1-hexyne] + C[N+]1(CCCO)CCOCC1.N#C[N-]C#N
- activity coefficient (308.15 K): 44.5 ± 3
- activity coefficient (318.15 K): 42.9 ± 2.9
- activity coefficient (328.15 K): 41.6 ± 2.8
- activity coefficient (338.15 K): 40.2 ± 2.8
- activity coefficient (348.15 K): 39.1 ± 2.7
- activity coefficient (358.15 K): 38 ± 2.6
- activity coefficient (368.15 K): 37 ± 2.5

Structure (SMILES): C=CCCCCCCCC [1-decene] + C[N+]1(CCCO)CCOCC1.N#C[N-]C#N
- activity coefficient (308.15 K): 1640 ± 110
- activity coefficient (318.15 K): 1460 ± 100
- activity coefficient (328.15 K): 1300 ± 89
- activity coefficient (338.15 K): 1160 ± 80
- activity coefficient (348.15 K): 1050 ± 72
- activity coefficient (358.15 K): 952 ± 66
- activity coefficient (368.15 K): 875 ± 60

Structure (SMILES): CCC(=O)CC [pentan-3-one] + C[N+]1(CCCO)CCOCC1.N#C[N-]C#N
- activity coefficient (318.15 K): 8.09 ± 0.55
- activity coefficient (328.15 K): 8.2 ± 0.56
- activity coefficient (338.15 K): 8.38 ± 0.57
- activity coefficient (348.15 K): 8.52 ± 0.58
- activity coefficient (358.15 K): 8.61 ± 0.59
- activity coefficient (368.15 K): 8.75 ± 0.6

Structure (SMILES): O [water] + C[N+]1(CCCO)CCOCC1.N#C[N-]C#N
- activity coefficient (318.15 K): 0.364 ± 0.033
- activity coefficient (328.15 K): 0.373 ± 0.033
- activity coefficient (338.15 K): 0.384 ± 0.033
- activity coefficient (348.15 K): 0.395 ± 0.034
- activity coefficient (358.15 K): 0.404 ± 0.034
- activity coefficient (368.15 K): 0.414 ± 0.034

Structure (SMILES): C1CCCCCC1 [cycloheptane] + C[n+]1ccn(CCCO)c1.N#CN=C=[N-]
- activity coefficient (298.15 K): 152 ± 10
- activity coefficient (308.15 K): 139 ± 10
- activity coefficient (318.15 K): 128 ± 9
- activity coefficient (328.15 K): 119 ± 8
- activity coefficient (338.15 K): 111 ± 8
- activity coefficient (348.15 K): 104 ± 7
- activity coefficient (358.15 K): 97.8 ± 6.7

Structure (SMILES): CCCO [propan-1-ol] + C[n+]1ccn(CCCO)c1.N#CN=C=[N-]
- activity coefficient (318.15 K): 1.77 ± 0.12
- activity coefficient (328.15 K): 1.76 ± 0.12
- activity coefficient (338.15 K): 1.76 ± 0.12
- activity coefficient (348.15 K): 1.76 ± 0.12
- activity coefficient (358.15 K): 1.77 ± 0.12
- activity coefficient (368.15 K): 1.78 ± 0.12

Structure (SMILES): CC(C)(C)O [2-methylpropan-2-ol] + C[n+]1ccn(CCCO)c1.N#CN=C=[N-]
- activity coefficient (318.15 K): 2.58 ± 0.18
- activity coefficient (328.15 K): 2.63 ± 0.18
- activity coefficient (338.15 K): 2.68 ± 0.18
- activity coefficient (348.15 K): 2.71 ± 0.18
- activity coefficient (358.15 K): 2.74 ± 0.19
- activity coefficient (368.15 K): 2.79 ± 0.19

Structure (SMILES): CCCC(C)=O [pentan-2-one] + C[N+]1(CCCO)CCOCC1.N#C[N-]C#N
- activity coefficient (318.15 K): 7.85 ± 0.54
- activity coefficient (328.15 K): 7.96 ± 0.54
- activity coefficient (338.15 K): 8.1 ± 0.55
- activity coefficient (348.15 K): 8.23 ± 0.56
- activity coefficient (358.15 K): 8.33 ± 0.57
- activity coefficient (368.15 K): 8.44 ± 0.58

Structure (SMILES): CC(C)OC(C)C [diisopropyl ether] + C[N+]1(CCCO)CCOCC1.N#C[N-]C#N
- activity coefficient (298.15 K): 393 ± 27
- activity coefficient (308.15 K): 306 ± 21
- activity coefficient (318.15 K): 244 ± 17

Structure (SMILES): CCc1ccccc1 [ethylbenzene] + C[N+]1(CCCO)CCOCC1.N#C[N-]C#N
- activity coefficient (318.15 K): 26.4 ± 1.8
- activity coefficient (328.15 K): 26.3 ± 1.8
- activity coefficient (338.15 K): 26.3 ± 1.8
- activity coefficient (348.15 K): 26.2 ± 1.8
- activity coefficient (358.15 K): 26.2 ± 1.8
- activity coefficient (368.15 K): 26.2 ± 1.8

Structure (SMILES): C1CCOC1 [tetrahydrofuran] + C[n+]1ccn(CCCO)c1.N#CN=C=[N-]
- activity coefficient (318.15 K): 3.07 ± 0.21
- activity coefficient (328.15 K): 3.19 ± 0.22
- activity coefficient (338.15 K): 3.33 ± 0.23
- activity coefficient (348.15 K): 3.44 ± 0.23
- activity coefficient (358.15 K): 3.57 ± 0.24
- activity coefficient (368.15 K): 3.67 ± 0.25

Structure (SMILES): C=COC(C)=O [vinyl acetate] + C[N+]1(CCCO)CCOCC1.N#C[N-]C#N
- activity coefficient (318.15 K): 6.62 ± 0.45
- activity coefficient (328.15 K): 6.72 ± 0.46
- activity coefficient (338.15 K): 6.81 ± 0.46
- activity coefficient (348.15 K): 6.89 ± 0.47
- activity coefficient (358.15 K): 6.99 ± 0.48
- activity coefficient (368.15 K): 7.08 ± 0.48

Structure (SMILES): COC(C)=O [methyl ethanoate] + C[N+]1(CCCO)CCOCC1.N#C[N-]C#N
- activity coefficient (318.15 K): 4.31 ± 0.29
- activity coefficient (328.15 K): 4.41 ± 0.3
- activity coefficient (338.15 K): 4.54 ± 0.31
- activity coefficient (348.15 K): 4.64 ± 0.32
- activity coefficient (358.15 K): 4.77 ± 0.33
- activity coefficient (368.15 K): 4.89 ± 0.33

Structure (SMILES): CCC(C)CC [3-methylpentane] + C[n+]1ccn(CCCO)c1.N#CN=C=[N-]
- activity coefficient (298.15 K): 327 ± 22
- activity coefficient (308.15 K): 284 ± 20
- activity coefficient (318.15 K): 249 ± 17
- activity coefficient (328.15 K): 221 ± 15

Structure (SMILES): COC(C)(C)C [2-methoxy-2-methylpropane] + C[N+]1(CCCO)CCOCC1.N#C[N-]C#N
- activity coefficient (308.15 K): 55.8 ± 3.8
- activity coefficient (318.15 K): 52.4 ± 3.6
- activity coefficient (328.15 K): 49.7 ± 3.4
- activity coefficient (338.15 K): 47.1 ± 3.2
- activity coefficient (348.15 K): 45 ± 3.1
- activity coefficient (358.15 K): 42.9 ± 2.9
- activity coefficient (368.15 K): 41.3 ± 2.8

Structure (SMILES): C#CCCCCC [1-heptyne] + C[n+]1ccn(CCCO)c1.N#CN=C=[N-]
- activity coefficient (298.15 K): 34 ± 2.3
- activity coefficient (308.15 K): 34.3 ± 2.3
- activity coefficient (318.15 K): 34.6 ± 2.4
- activity coefficient (328.15 K): 34.6 ± 2.4
- activity coefficient (338.15 K): 35.1 ± 2.4
- activity coefficient (348.15 K): 35.3 ± 2.4
- activity coefficient (358.15 K): 35.3 ± 2.4

Structure (SMILES): C#CCCCC [1-hexyne] + C[n+]1ccn(CCCO)c1.N#CN=C=[N-]
- activity coefficient (298.15 K): 18.8 ± 1.3
- activity coefficient (308.15 K): 19.3 ± 1.3
- activity coefficient (318.15 K): 19.6 ± 1.3
- activity coefficient (328.15 K): 20 ± 1.4
- activity coefficient (338.15 K): 20.3 ± 1.4
- activity coefficient (348.15 K): 20.6 ± 1.4
- activity coefficient (358.15 K): 21.4 ± 1.5

Structure (SMILES): C=CCCCCC [1-heptene] + C[N+]1(CCCO)CCOCC1.N#C[N-]C#N
- activity coefficient (298.15 K): 793 ± 55
- activity coefficient (308.15 K): 634 ± 44
- activity coefficient (318.15 K): 519 ± 36
- activity coefficient (328.15 K): 425 ± 29
- activity coefficient (338.15 K): 359 ± 25

Structure (SMILES): CC(C)OC(C)C [diisopropyl ether] + C[n+]1ccn(CCCO)c1.N#CN=C=[N-]
- activity coefficient (318.15 K): 96 ± 6.6
- activity coefficient (328.15 K): 92.7 ± 6.4
- activity coefficient (338.15 K): 90.6 ± 6.2
- activity coefficient (348.15 K): 88 ± 6
- activity coefficient (358.15 K): 86.5 ± 5.9
- activity coefficient (368.15 K): 84.3 ± 5.8

Structure (SMILES): c1ccncc1 [pyridine] + C[n+]1ccn(CCCO)c1.N#CN=C=[N-]
- activity coefficient (318.15 K): 1.33 ± 0.09
- activity coefficient (328.15 K): 1.41 ± 0.09
- activity coefficient (338.15 K): 1.5 ± 0.1
- activity coefficient (348.15 K): 1.58 ± 0.1
- activity coefficient (358.15 K): 1.67 ± 0.11
- activity coefficient (368.15 K): 1.75 ± 0.12

Structure (SMILES): Cc1ccccc1 [toluene] + C[n+]1ccn(CCCO)c1.N#CN=C=[N-]
- activity coefficient (318.15 K): 7.75 ± 0.53
- activity coefficient (328.15 K): 8 ± 0.55
- activity coefficient (338.15 K): 8.27 ± 0.56
- activity coefficient (348.15 K): 8.51 ± 0.58
- activity coefficient (358.15 K): 8.84 ± 0.6
- activity coefficient (368.15 K): 9.09 ± 0.62

Structure (SMILES): CCCC(C)=O [pentan-2-one] + C[n+]1ccn(CCCO)c1.N#CN=C=[N-]
- activity coefficient (318.15 K): 4.94 ± 0.34
- activity coefficient (328.15 K): 5.14 ± 0.35
- activity coefficient (338.15 K): 5.32 ± 0.36
- activity coefficient (348.15 K): 5.46 ± 0.37
- activity coefficient (358.15 K): 5.67 ± 0.39
- activity coefficient (368.15 K): 5.81 ± 0.4

Structure (SMILES): CC(C)(C)O [2-methylpropan-2-ol] + C[N+]1(CCCO)CCOCC1.N#C[N-]C#N
- activity coefficient (318.15 K): 4.35 ± 0.3
- activity coefficient (328.15 K): 4.27 ± 0.29
- activity coefficient (338.15 K): 4.21 ± 0.29
- activity coefficient (348.15 K): 4.17 ± 0.28
- activity coefficient (358.15 K): 4.14 ± 0.28
- activity coefficient (368.15 K): 4.09 ± 0.28

Structure (SMILES): C=CCCC [1-pentene] + C[n+]1ccn(CCCO)c1.N#CN=C=[N-]
- activity coefficient (298.15 K): 74 ± 5.1
- activity coefficient (308.15 K): 68.1 ± 4.7
- activity coefficient (318.15 K): 63.5 ± 4.3
- activity coefficient (328.15 K): 59.3 ± 4.1

Structure (SMILES): CCC[N+](=O)[O-] [1-nitropropane] + C[n+]1ccn(CCCO)c1.N#CN=C=[N-]
- activity coefficient (318.15 K): 2.69 ± 0.18
- activity coefficient (328.15 K): 2.79 ± 0.19
- activity coefficient (338.15 K): 2.89 ± 0.2
- activity coefficient (348.15 K): 2.97 ± 0.2
- activity coefficient (358.15 K): 3.08 ± 0.21
- activity coefficient (368.15 K): 3.17 ± 0.22

Structure (SMILES): c1ccccc1 [benzene] + C[n+]1ccn(CCCO)c1.N#CN=C=[N-]
- activity coefficient (318.15 K): 4.41 ± 0.3
- activity coefficient (328.15 K): 4.56 ± 0.31
- activity coefficient (338.15 K): 4.74 ± 0.32
- activity coefficient (348.15 K): 4.92 ± 0.34
- activity coefficient (358.15 K): 5.08 ± 0.35
- activity coefficient (368.15 K): 5.22 ± 0.36
